In BindingDB's records for doi:10.1021/jm8010993:

Assays:
Assay in all cases: PDE4 Enzyme Assay
Details in all cases: pH 8; 34 °C
[1] = biological target: cAMP-specific 3',5'-cyclic phosphodiesterase 4B (Homo sapiens, UniProt Q07343)
Description: (§1) The samples were assayed in a solution composed of PDE4, [3H]cAMP/cAMP, and test compounds. To convert AMP to adenosine, snake venom was added to each sample after reactions were stopped. The reaction products were separated by anion-exchange chromatography performed on AGl-X8 resin, and the amount of unbound [3H] adenosine was collected and quantified by scintillation counting.

[2] = biological target: cAMP-specific 3',5'-cyclic phosphodiesterase 4A (Homo sapiens, UniProt P27815)
Description: as §1

[3] = biological target: cAMP-specific 3',5'-cyclic phosphodiesterase 4D (Homo sapiens, UniProt Q08499)
Description: as §1

Chain of cAMP-specific 3',5'-cyclic phosphodiesterase 4B (Q07343 whole entry): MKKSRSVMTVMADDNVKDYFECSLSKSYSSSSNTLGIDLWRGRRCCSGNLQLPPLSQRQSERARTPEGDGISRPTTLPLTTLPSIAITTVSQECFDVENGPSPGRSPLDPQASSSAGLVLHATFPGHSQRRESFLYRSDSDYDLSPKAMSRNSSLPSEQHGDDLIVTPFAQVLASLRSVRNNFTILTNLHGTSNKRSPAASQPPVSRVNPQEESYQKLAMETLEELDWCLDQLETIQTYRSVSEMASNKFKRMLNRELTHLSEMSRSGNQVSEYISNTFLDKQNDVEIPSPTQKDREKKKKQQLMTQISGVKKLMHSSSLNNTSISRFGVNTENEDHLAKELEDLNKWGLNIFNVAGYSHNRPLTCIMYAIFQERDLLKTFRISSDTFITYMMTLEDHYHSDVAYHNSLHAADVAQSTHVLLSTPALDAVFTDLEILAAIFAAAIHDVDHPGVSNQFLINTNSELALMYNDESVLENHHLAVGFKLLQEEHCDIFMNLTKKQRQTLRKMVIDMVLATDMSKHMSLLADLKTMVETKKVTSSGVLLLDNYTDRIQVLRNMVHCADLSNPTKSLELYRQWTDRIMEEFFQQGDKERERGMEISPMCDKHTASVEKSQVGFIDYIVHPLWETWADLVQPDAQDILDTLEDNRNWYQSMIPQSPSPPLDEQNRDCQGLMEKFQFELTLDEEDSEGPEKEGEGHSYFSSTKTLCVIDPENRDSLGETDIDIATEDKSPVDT
Chain of cAMP-specific 3',5'-cyclic phosphodiesterase 4A (P27815 whole entry): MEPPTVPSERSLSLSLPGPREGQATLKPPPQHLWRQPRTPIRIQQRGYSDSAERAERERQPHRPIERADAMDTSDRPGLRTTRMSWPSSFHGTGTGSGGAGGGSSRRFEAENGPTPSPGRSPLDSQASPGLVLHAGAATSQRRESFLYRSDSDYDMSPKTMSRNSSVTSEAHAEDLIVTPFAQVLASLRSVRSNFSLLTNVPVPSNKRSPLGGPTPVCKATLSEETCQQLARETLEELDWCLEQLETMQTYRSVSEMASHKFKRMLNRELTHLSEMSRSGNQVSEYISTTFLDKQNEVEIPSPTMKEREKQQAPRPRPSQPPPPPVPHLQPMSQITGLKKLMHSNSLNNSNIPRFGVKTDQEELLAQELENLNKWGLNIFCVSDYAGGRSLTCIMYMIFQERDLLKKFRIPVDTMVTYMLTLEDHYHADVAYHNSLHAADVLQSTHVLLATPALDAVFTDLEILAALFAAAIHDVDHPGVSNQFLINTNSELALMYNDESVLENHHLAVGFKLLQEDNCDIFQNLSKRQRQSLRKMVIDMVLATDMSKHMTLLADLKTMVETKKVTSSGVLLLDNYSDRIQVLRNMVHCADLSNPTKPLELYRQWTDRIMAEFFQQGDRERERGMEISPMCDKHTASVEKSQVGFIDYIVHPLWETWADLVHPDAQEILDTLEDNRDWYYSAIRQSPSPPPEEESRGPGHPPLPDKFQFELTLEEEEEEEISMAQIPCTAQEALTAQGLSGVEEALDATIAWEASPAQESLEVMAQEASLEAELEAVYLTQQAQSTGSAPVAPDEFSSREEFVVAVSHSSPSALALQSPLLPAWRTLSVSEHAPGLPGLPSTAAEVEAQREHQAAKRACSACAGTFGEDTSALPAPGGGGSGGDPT
Chain of cAMP-specific 3',5'-cyclic phosphodiesterase 4D (Q08499 whole entry): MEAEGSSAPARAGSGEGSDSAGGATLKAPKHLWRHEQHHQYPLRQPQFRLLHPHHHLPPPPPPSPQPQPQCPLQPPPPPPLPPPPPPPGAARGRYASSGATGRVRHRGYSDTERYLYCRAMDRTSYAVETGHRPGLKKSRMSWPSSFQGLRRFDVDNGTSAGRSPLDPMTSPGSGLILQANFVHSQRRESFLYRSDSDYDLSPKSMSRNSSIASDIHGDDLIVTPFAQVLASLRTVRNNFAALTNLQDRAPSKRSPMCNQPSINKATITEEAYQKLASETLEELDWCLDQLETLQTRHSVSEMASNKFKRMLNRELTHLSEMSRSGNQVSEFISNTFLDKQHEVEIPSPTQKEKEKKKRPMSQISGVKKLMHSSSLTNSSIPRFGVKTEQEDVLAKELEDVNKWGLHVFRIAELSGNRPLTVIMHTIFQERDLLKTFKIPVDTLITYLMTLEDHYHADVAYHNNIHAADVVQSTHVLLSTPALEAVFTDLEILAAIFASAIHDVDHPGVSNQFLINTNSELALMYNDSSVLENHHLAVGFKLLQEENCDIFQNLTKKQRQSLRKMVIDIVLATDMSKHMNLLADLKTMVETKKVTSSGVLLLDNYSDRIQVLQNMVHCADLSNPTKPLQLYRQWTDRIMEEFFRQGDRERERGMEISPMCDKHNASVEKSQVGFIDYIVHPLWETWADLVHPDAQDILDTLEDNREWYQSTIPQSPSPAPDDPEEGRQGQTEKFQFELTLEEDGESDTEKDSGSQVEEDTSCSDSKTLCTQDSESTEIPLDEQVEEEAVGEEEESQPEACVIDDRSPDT

## COc1ccc(F)c(CCC2CCC(CCNCCCCCN3N=C(c4ccc(OC)c(OC)c4)C4CC=CCC4C3=O)O2)c1 (stereo not drawn) [phthalazinone, 21]
[1]
  Ki: 199 nM
[2]
  Ki: > 1000 nM
[3]
  Ki: 2 nM
